Reference: article PMC9369311, “Examination of Intracellular GPCR-Mediated Signaling with High Temporal Resolution” (International Journal of Molecular Sciences, 2022)
“And” between values parts separate entries of the source, which are not always exact repeats. Equal values may be shown once. Read-outs that look alike come from different tables or passages of the source.

Target: T1, DmOctβ1 receptor (Drosophila melanogaster, UniProt Q9VCZ3)
T1 construct: expressed in transfected cells; host or cells: flpTM cells (HEK293 flpIn, Invitrogen #750-07, carrying the CNGA2 variant)
T1 sequence (Q9VCZ3 1-508): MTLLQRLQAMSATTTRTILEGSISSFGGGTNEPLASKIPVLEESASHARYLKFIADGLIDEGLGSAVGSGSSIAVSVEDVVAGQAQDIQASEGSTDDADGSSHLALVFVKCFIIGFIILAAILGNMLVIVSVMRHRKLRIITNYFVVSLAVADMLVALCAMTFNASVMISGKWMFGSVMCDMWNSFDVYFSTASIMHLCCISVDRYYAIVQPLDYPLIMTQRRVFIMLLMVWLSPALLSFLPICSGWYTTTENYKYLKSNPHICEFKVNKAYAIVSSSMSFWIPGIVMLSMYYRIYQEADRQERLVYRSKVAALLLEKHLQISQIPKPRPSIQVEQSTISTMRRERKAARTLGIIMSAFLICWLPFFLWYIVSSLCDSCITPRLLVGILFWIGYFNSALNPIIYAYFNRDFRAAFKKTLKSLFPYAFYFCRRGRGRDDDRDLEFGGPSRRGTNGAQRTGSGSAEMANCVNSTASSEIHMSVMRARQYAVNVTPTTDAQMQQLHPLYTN
Test: Ca2+ fluorimetry in plate reader (96 MWP), flpTM-DmOctβ1 cells (cAMP-mediated Ca2+ influx via CNGA2)
Format: cell-based
Method: Both the DmOctα1B receptor- and DmOctβ1 receptor-expressing (=flpTM-DmOctβ1) cell lines were initially investigated via Ca^2+ fluorimetric measurements in a plate reader. The cells were seeded in 96 well plates and loaded with Fluo-4, enabling the detection of changes in [Ca^2+]i. The Fluo-4 was excited at 485 nm and the fluorescence emission was recorded at 510 nm. To overcome the cAMP degradation by cell-endogenous phosphodiesterases, the DmOctβ1-expressing cells were treated with 100 µM iso-butylmethylxanthine (IBMX). Prior to the ligand application, the basal fluorescence (F0) was recorded and the concentration–response curves were generated by plotting the changes in fluorescence ((Fmax − F0)/F0 = ΔF/F0) against the ligand concentrations. For a better comparison, the fluorescence intensities were normalized. The maximal change in fluorescence for each of the stimulation series was defined as 100%. The EC50 values were determined from a nonlinear regression plot (four parameters) using GraphPad Prism v5.04 for analysis and display.
In order to omit loading with the fluorescent dye, both the DmOctα1B-expressing cells and flpTM-DmOctβ1 cells were stably transfected with a construct encoding the cytosolic version of GCaMP3.0. As in the previous experiment with Fluo-4, the GCaMP3.0-expressing cell lines were seeded in 96 well plates and incubated with the same series of increasing octopamine concentrations. The GCaMP3.0 was excited at 485 nm and the fluorescence emission was recorded at 510 nm. The basal fluorescence (F0) was recorded before adding the octopamine concentration series. The fluorescence intensities were normalized to the maximal change in fluorescence, defined as 100%. The concentration–response curves were generated with GraphPad Prism v5.04. In Figure 1, the concentration–response curves obtained with Fluo-4 and GCaMP3.0 are depicted for both of the receptors. […]

EC50 (flpTM-DmOctβ1-GCaMP3.0 cells, 100 µM IBMX, given as logEC50 (negative), read-out: logEC50 ± SD (converted)): 0.437 nM
EC50 (flpTM-DmOctβ1-GCaMP3.0 cells, 100 µM IBMX, read-out: EC50): 0.4 nM
EC50 (flpTM-DmOctβ1 cells loaded with Fluo-4, 100 µM IBMX, read-out: EC50): ~1.2 nM and 1.2 nM
SMILES: NCC(O)c1ccc(O)cc1 (stereo not drawn) [octopamine]
